In patent US6028102A, “Anticonvulsant drugs and pharmaceutical compositions thereof” (priority 1998, dated 2000):
Like-named read-outs stand apart in the source and are kept apart here. Peptide text beside a SMILES is read from it. * marks the point of attachment. Cbz = O=C(OCc1ccccc1)*

Key:
[1] = mice; Kohn et al 1988, 1990, 1991; Conley and Kohn, 1987; cited from earlier work
[2] = in vivo, cited from earlier work
[3] = Screening of anticonvulsant activity; type: in vivo, mice; settings: for anticonvulsant activity: ip administration (300 mg) to mice; for anticonvulsant activity in words: overall finding of the study
Method: Screening of Anticonvulsant Activity
Compounds I-XI were screened in carworth farm #1 mice (ip--in a volume of 0.01 mL/g of body weight) and sprague-Dawley rats (po--in a volume of 0.004 mL/g of body weight) for their anticonvulsant activity and neurotoxicity by the NIH epilepsy Branch [Porter et al, 1984]. The screening procedure involved the following:
1) the maximal electroshock (MES) test, which measures seizure spread; 2) the subcutaneous pentylenetetrazol test (sc Met test) which measures seizure threshold; and 3) the rotored ataxia test which assesses neurotoxicity.
Applicants therefore decided to derivatize glycinamide and the above dipeptides by synthesizing their N-acetyl and N'-benzyl derivatives (compounds IV-VIII). […] Therefore, this compound was further analyzed quantitatively and its ED50 data and protective indices in comparison to phthaloyl glycinamide and valproyl glycinamide--TV 1901 [17] are presented in Table 2. As a consequence of their anticonvulsant activity, the pharmacokinetics of compounds VII and IX were investigated following iv administration (400 mg) to six dogs, and the mean plasma levels of compounds VII and IX are presented in FIGS. 1 and 2, respectively.

[4] = mice and rats / rodents; cited from earlier work
[5] = mice; Freed, 1985; cited from earlier work
[6] = electroshock, metrazole and homocysteine; Freed et al, 1979; cited from earlier work
[7] = rats; Lambert et al. [1994]; cited from earlier work
[8] = Pharmacokinetic analysis following iv administration to dogs; type: in vivo; settings: dog, in vivo
Method: The experiments were carried out on six male dogs (mongrels), ranging in weight between 18 and 22 kg. In a randomized cross over design, each dog was injected intravenously (in 1.5 mL of DMSO) with a dose of 400 mg of N-acetyl,N'-benzylglycinamide (VII), 404 mg (on dose equivalent to 400 mg of compound VII) of Z-glycinamide (IX) and 406 mg of Z-glycine (VIII). Urine was collected systematically for 12 hours after dosing, by means of an indwelling catheter.
Venous blood samples (6 mL) were collected via an indwelling catheter (from the cephalic vein) at specified intervals following injection (0, 5, 10, 20, 30, 45 minutes and 1, 1.5, 2, 2.5, 3, 4, 5, 6, 7, 8, 10 and 12 hours respectively). The plasma was then immediately separated by centrifugation at 3000 g for 15 minutes and stored at -20° C. Before each assay, the plasma was allowed to reach room temperature, vortexed, centrifuged and the residual clot removed.
Urine samples were collected via a urine catheter at specified intervals following injection (0, 1, 2, 3, 4, 5, 6, 7, 8, 9, 10 and 12 hours respectively), the samples volume were measured and the urine samples were stored at -20° C. Plasma and urine levels of compounds VII, VIII and IX were then assayed by a HPLC assay described herein below.
HPLC Assay for Monitoring N-acetyl,N'-benzylglycinamide (VII) and N-benzyloxycarbonylglycinamide (IX) in Dog Plasma and Urine
Plasma samples are allowed to reach room temperature, vortexed and centrifuged. The plasma was then assayed as follows:
To 0.5 mL of plasma, 10 μg of an internal standard (N-benzyl-oxycarbonylglycinamide (IX)) and 4 mL of tert-butylmethylether were added. The mixture was vigorously vortexed for 30 seconds, centrifuged for 10 minutes at 3000 g, the organic phase was separated and evaporated to dryness (using a vortex evaporator). To the residue, 80 μl of methanol were added, the mixture was vortexed and 30 μl were injected into the HPLC (Schimadzu SCL-10A with a UV-visible detector model SPD-10A).
Urine samples are allowed to reach room temperature, vortexed and centrifuged. The urine was then assayed as follows:
To 0.25 mL of urine, 10 μg of internal standard (N-benzyl-oxycarbonylglycinamide (IX)), 100 μl of hydrochloric acid solution (1 N) and 4 mL of tert-butylmethylether were added. The mixture was vigorously vortexed for 30 seconds and centrifuged for 10 minutes at 3000 g, the organic phase was separated and transferred to another test tube containing 0.5 mL of sodium hydroxide solution (1N), the mixture was vigorously vortexed for 30 seconds, centrifuged for 10 minutes at 3000 g, the organic phase was separated and evaporated to dryness (using a vortex evaporator). To the residue, 80 μl of methanol were added, the mixture was vortexed and 30 μl were injected into the HPLC.
HPLC conditions: HPLC column; Hypersil ODS (C-18) 5μ, 4.6×150 mm; Wavelength: 258 nm; Mobile phase: 60% water, 40% methanol and 0.01% trifluoroacetic acid.
The same assay was used for monitoring N-benzyloxycarbonyl-glycinamide (IX) in dog plasma and dog urine using N-acetyl,N'-benzylglycinamide as an internal standard.
HPLC Assay for Monitoring Z-glycine (VIII) in Dog Plasma and Urine
To 0.5 mL of plasma, 10 μg of internal standard (Z-GABA), 100 μl of hydrochloric acid solution (1N) and 5 mL of tert-butylmethylether were added. The mixture was vigorously vortexed for 30 seconds, centrifuged for 10 minutes at 3000 g, the organic phase was separated and evaporated to dryness (using a vortex evaporator). To the residue, 100 μl of mobile phase were added, the mixture was vortexed and 30 μl were injected to the HPLC.
Urine samples was allowed to reach room temperature, vortexed and centrifuged. The urine was then assayed as follows:
To 0.1 mL of urine, 30 μg of internal standard (Z-GABA) and 5 mL of tert-butylmethylether were added. The mixture was vigorously vortexed for 30 seconds, centrifuged for 10 minutes at 3000 g, the organic phase was separated off. […]

[9] = ip, mice; data from Salach et al (1994), Hadad and Bialer (1995); cited from earlier work
[10] = ip, mice, cited from earlier work; for sc Met, ED50: data from Salach et al (1994), Hadad and Bialer (1995)
[11] = dogs, iv, mean, Table 3, cited from earlier work; for CL / MRT / Vss / Vβ / t1/2: data from Salach et al 1994, Hadad and Bialer 1995
[12] = ip, mice; data from Salach et al (1994), Hadad and Bialer (1995); cited from earlier work; remark: listed apart in the source

Q: Which “anticonvulsant activity in MES test” value [1] does the source give for `CC(=O)N[C@@H](C(=O)NCc1ccccc1)c1ccc[nH]1` (racemic) [(R,S)-2-acetamido-N-benzyl-2-pyrolacetamide] here?
A: more potent than the analogous alanine and phenylglycine derivatives

Q: Which “anticonvulsant activity in MES test” value [1] does the source give for `CC(=O)NC(C)C(=O)NCc1ccccc1` (racemic) [N-acetyl,N'-benzyl DL-alaninamide] here?
A: marked anticonvulsant activity

Q: Which “anticonvulsant activity in MES test” value [1] does the source give for `CC(=O)NC(C(=O)NCc1ccccc1)c1ccccc1` (racemic) [N-acetyl,N'-benzyl DL-phenyl glycinamide] here?
A: marked anticonvulsant activity

Q: With `NCCCC(=O)O` [GABA] as the compound, how does the “effect upon oral or systemic administration” value [2] read?
A: neither GABA nor glycine are effective upon oral or systemic administration

Q: What about the blood-brain barrier passage [2] of the same compound?
A: inability to cross the blood brain barrier

Q: Which anticonvulsant activity [3] does the source give for `NCC(=O)NCC(=O)O` [I, Glycylglycine] (H-Gly-Gly-OH) here?
A: did not show anticonvulsant activity

Q: Which anticonvulsant activity [3] does the source give for `NCC(=O)NCC(N)=O` [II, Glycylglycinamide] here?
A: did not show anticonvulsant activity

Q: Which anticonvulsant activity [3] does the source give for `NCCCC(=O)NCC(N)=O` [III, Gaboylglycinamide] here?
A: did not show anticonvulsant activity

Q: For `CCC=C(CCC)C(=O)NCC(N)=O` [N-2-enevalproyl glycinamide], which “anticonvulsant activity in words” value [4] is on record?
A: good anticonvulsant activity in rodents

Q: For `O=C(O)CNC(=O)CNC(=O)OCc1ccccc1` [X, N-benzyloxycarbonyl glycylglycine] (Cbz-Gly-Gly-OH), which “anticonvulsant activity in words” value [3] is on record?
A: inactive as anticonvulsant

Q: For `NC(=O)CNC(=O)CNC(=O)OCc1ccccc1` [XI, N-Benzyloxycarbonyl Glycylglycinamide] (Cbz-Gly-Gly-NH2), which “anticonvulsant activity in words” value [3] is on record?
A: inactive as anticonvulsant

Q: Which results are given for `C[N+](C)(C)CC(=O)O` [betaine, N,N,N-trimethyl glycine]?
A: antagonism of strychnine-induced seizures [5]: antagonized; block of induction of convulsions [6]: block the induction of convulsions

Q: Which “anticonvulsant activity in words” value [3] does the source give for `CC(=O)NCC(=O)NCC(N)=O` [compound VI, N-Acetylglycylglycinamide] here?
A: inactive as anticonvulsant

Q: With `O=C(O)CNC(=O)OCc1ccccc1` [compound VIII, N-benzyloxycarbonylglycine] as the compound, how does the “anticonvulsant activity relative to glycine” value [7] read?
A: far more active than glycine

Q: And the “anticonvulsant activity in words” value [3]?
A: lack of activity

Q: What about the “anticonvulsant activity in words” value ([3]; listed as Z-glycine) of the same compound?
A: inactive in this study

Q: What about the “fm (fraction metabolized of Z-glycinamide to Z-glycine)” value [8] of the same compound?
A: 80.1 ± 13.6%

Q: What about the half-life [8] of the same compound?
A: 0.6 ± 0.14 h

Q: And the “pharmacokinetics and elimination in words” value [8]?
A: its t1/2 was the shortest

Q: And the “Mu/D (fraction of Z-glycine excreted in the urine as a metabolite of Z-glycinamide)” value ([8]; 720 min)?
A: 20 ± 19.8%

Q: What about the clearance ([8]; CL) of the same compound?
A: 90 mL/min

Q: And the MRT ([8]; MRT)?
A: 0.8 ± 0.1 h

Q: And the Vd ([8]; VSS / volume of distribution)?
A: 0.2 L/kg

Q: What about the Vd ([8]; Vss) of the same compound?
A: 4.9 ± 0.6 L

Q: What about the Vd ([8]; Vβ) of the same compound?
A: 4.5 ± 0.8 L

Q: Which “anticonvulsant activity in words” value [4] does the source give for `CC(C)C(C(=O)NCC(N)=O)C(C)C` [diisopropyl acety glycinamide] here?
A: good anticonvulsant activity in rodents

Q: For `CN(C)CC(=O)O` [dimethylglycine], which “antagonism of strychnine-induced seizures” value [5] is on record?
A: antagonized

Q: What does the source list for `NCC(=O)O` [glycine]?
A: effect upon oral or systemic administration [2]: neither GABA nor glycine are effective upon oral or systemic administration; blood-brain barrier passage [2]: does not readily cross the blood-brain barrier

Q: Which results are given for `NC(=O)CN1C(=O)c2ccccc2C1=O` [phthaloyl glycinamide, phthaloylglycinamide]?
A: Neurotoxicity, TD50 [9]: > 600 mg/kg; sc Met, ED50 [10]: > 400 mg/kg; CL [11]: 9 L/h; MRT [11]: 4.6 ± 0.9 h; Vss [11]: 46 ± 13 L; Vβ [11]: 48 ± 13 L; t1/2 [11]: 3.4 ± 0.7 h; fe (fraction excreted unchanged in urine) ([11]; data from Salach et al 1994, 720 min): 7.0 ± 0.7%; MES, ED50 [12]: 94 mg/kg; PI, MES (Protective index, ratio of TD50 to ED50) [12]: > 64

Q: Which “antagonism of strychnine-induced seizures” value [5] does the source give for `CNCC(=O)O` [sarcosine, N-methylglycine] here?
A: antagonized

Q: Which “anticonvulsant activity in words” value [4] does the source give for `CC1(C)C(C(=O)NCC(N)=O)C1(C)C` [tetramethylcyclopropylcarbonyl glycinamide] here?
A: good anticonvulsant activity in rodents

Q: With `CCC(C)C(CC)C(=O)NCC(N)=O` (centres unmarked) [valnoctyl glycinamide] as the compound, how does the “anticonvulsant activity in words” value [4] read?
A: good anticonvulsant activity in rodents

Q: For `CCCC(CCC)C(=O)NCC(N)=O` [valproyl glycinamide, N-valproyl glycinamide], which “PI, sc Met (Protective index, ratio of TD50 to ED50)” value ([10]; data from Hadad and Bialer (1995)) is on record?
A: 2.9

Q: And the “sc Met, ED50” value [10]?
A: 127 mg/kg

Q: What about the CL [11] of the same compound?
A: 3 ± 0.8 L/h

Q: What about the MRT [11] of the same compound?
A: 4.6 ± 0.7 h

Q: And the Vss [11]?
A: 12 ± 3 L

Q: What about the Vβ [11] of the same compound?
A: 11 ± 3 L

Q: And the t1/2 [11]?
A: 2.7 ± 0.5 h

Q: What about the “anticonvulsant activity in words” value [4] of the same compound?
A: good anticonvulsant activity in both mice and rats

Q: What about the “MES, ED50” value [12] of the same compound?
A: 152 mg/kg

Q: And the “PI, MES (Protective index, ratio of TD50 to ED50)” value [12]?
A: 2.4
